Laboratory results as given in patent publication US12644001B2, “Fluorenyl cyanine dyes” (Biotium, Inc., priority 2020, dated 2026).

Assay: Fluorescence properties (excitation and emission wavelength) of exemplary compounds
Assay type: physicochemical
Conditions: for λ^em (nm): emission wavelength; for λ^ex (nm): excitation wavelength
Text: Exemplary compounds of the invention along with their known fluorescence properties are shown in Table 2 where λ^ex denotes excitation wavelength and λ^em denotes emission wavelength: […]

Row | SMILES | λ^em (nm) | λ^ex (nm)
1 | CCCOCCOCCOCCOCCOCCONC(=O)CCC1(CCC(=O)NOCCOCCOCCOCCOCCOCCC)c2cc3c(cc2-c2c1cc(S(=O)(=O)O)cc2S(=O)(=O)[O-])C(C)(C)C(/C=C/C1=C(Oc2ccc(S(=O)(=O)O)cc2)C(=C/C=C2/N(CCCCCC(=O)ON4C(=O)CCC4=O)c4cc5c(cc4C2(C)C)-c2c(cc(S(=O)(=O)O)cc2S(=O)(=O)O)C5(CCC(=O)NCCOCCOCCOCCOCCOCCOC)CCC(=O)NCCOCCOCCOCCOCCOCCOC)/CCC1)=[N+]3CCCCCC(=O)ON1C(=O)CCC1=O [Compound E17] | 832 | 823
2 | CCCOCCOCCOCCOCCOCCOCCOCCOCCOCCOCCONC(=O)CCC1(CCC(=O)NCCOCCOCCOCCOCCOCCOCCOCCOCCOCCOCCOC)c2cc(S(=O)(=O)O)ccc2-c2cc3c(cc21)N(CCCCCC(=O)ON1C(=O)CCC1=O)/C(=C/C=C/C=C/C1=[N+](CCCCCC(=O)ON2C(=O)CCC2=O)c2cc4c(cc2C1(C)C)-c1ccc(S(=O)(=O)[O-])cc1C4(CCC(=O)NCCOCCOCCOCCOCCOCCOCCOCCOCCOCCOCCOC)CCC(=O)NOCCOCCOCCOCCOCCOCCOCCOCCOCCOCCOCCC)C3(C)C (stereo not drawn) [Compound E14] | 721 | 696
3 | CC1(CCCCCC(=O)O)C(/C=C/C=C2\N(CCCS(=O)(=O)O)c3ccc(S(=O)(=O)[O-])cc3C2(C)C)=[N+](CCCS(=O)(=O)O)c2cc3c(cc21)-c1ccc(S(=O)(=O)O)cc1C3(C)C (stereo not drawn) [Compound E2] | 602 | 572
4 | CC1(C)c2cc(S(=O)(=O)O)ccc2-c2cc3c(cc21)N(CCCCCC(=O)ON1C(=O)CCC1=O)\C(=C/C=C/C=C/C=C/C1=[N+](CCCS(=O)(=O)O)c2cc4c(cc2C12CCCCC2)-c1ccc(S(=O)(=O)[O-])cc1C4(C)C)C31CCCCC1 [Compound E6] | 820 | 795
5 | CCCOCCOCCOCCOCCOCCOCCOCCOCCOCCOCCONC(=O)CCC1(CCC(=O)NOCCOCCOCCOCCOCCOCCOCCOCCOCCOCCOCCC)c2cc(S(=O)(=O)[O-])ccc2-c2cc3c(cc21)[N+](CCCCCC(=O)ON1C(=O)CCC1=O)=C(/C=C/C1=C(Oc2ccc(S(=O)(=O)O)cc2)C(=C/C=C2/N(CCCCCC(=O)ON4C(=O)CCC4=O)c4cc5c(cc4C2(C)C)-c2ccc(S(=O)(=O)O)cc2C5(CCC(=O)NCCOCCOCCOCCOCCOCCOCCOCCOCCOCCOCCOC)CCC(=O)NCCOCCOCCOCCOCCOCCOCCOCCOCCOCCOCCOC)/CCC1)C3(C)C [Compound E16] | 832 | 823
6 | CC1(C)C(/C=C/C=C/C=C/C=C2\N(CCCCCC(=O)ON3C(=O)CCC3=O)c3cc4c(cc3C2(C)C)-c2ccc(S(=O)(=O)O)cc2C42CCCCC2)=[N+](CCCS(=O)(=O)O)c2cc3c(cc21)-c1ccc(S(=O)(=O)[O-])cc1C31CCCCC1 [Compound E7] | 817 | 793
7 | CC1(C)C(/C=C/C=C/C=C2\N(CCCCCC(=O)ON3C(=O)CCC3=O)c3cc4c(cc3C2(C)C)-c2c(cc(S(=O)(=O)O)cc2S(=O)(=O)O)C4(C)C)=[N+](CCCCCC(=O)ON2C(=O)CCC2=O)c2cc3c(cc21)-c1c(cc(S(=O)(=O)O)cc1S(=O)(=O)[O-])C3(C)C [Compound E19] | 720 | 686
8 | CC1(C)C2=CC3=[N+](CCN2c2ccccc21)c1cc2c(cc1C3(C)CCCCCC(=O)O)-c1ccccc1C2(C)C.[I-] (stereo not drawn) [Compound E1] | 518 | 445
9 | CCCOCCOCCOCCOCCOCCONC(=O)CCC1(CCC(=O)NCCOCCOCCOCCOCCOCCOC)c2cc3c(cc2-c2c1cc(S(=O)(=O)O)cc2S(=O)(=O)[O-])C(C)(C)C(/C=C/C=C/C=C1/N(CCCCCC(=O)ON2C(=O)CCC2=O)c2cc4c(cc2C1(C)C)-c1c(cc(S(=O)(=O)O)cc1S(=O)(=O)O)C4(CCC(=O)NCCOCCOCCOCCOCCOCCOC)CCC(=O)NOCCOCCOCCOCCOCCOCCC)=[N+]3CCCCCC(=O)ON1C(=O)CCC1=O (stereo not drawn) [Compound E15] | 721 | 696
